Patent EP2140864A2 (H. Lundbeck A/S, priority 2001, dated 2002)
Read-outs that look alike come from different tables or passages of the source.

What was measured:
human GAL1 receptor = target: T1, human GAL1 receptor (Homo sapiens, UniProt P47211); experiment: Radioligand binding at cloned human GAL1 receptor
T1 construct: expressed in transfected cells
T1 sequence (P47211 1-349): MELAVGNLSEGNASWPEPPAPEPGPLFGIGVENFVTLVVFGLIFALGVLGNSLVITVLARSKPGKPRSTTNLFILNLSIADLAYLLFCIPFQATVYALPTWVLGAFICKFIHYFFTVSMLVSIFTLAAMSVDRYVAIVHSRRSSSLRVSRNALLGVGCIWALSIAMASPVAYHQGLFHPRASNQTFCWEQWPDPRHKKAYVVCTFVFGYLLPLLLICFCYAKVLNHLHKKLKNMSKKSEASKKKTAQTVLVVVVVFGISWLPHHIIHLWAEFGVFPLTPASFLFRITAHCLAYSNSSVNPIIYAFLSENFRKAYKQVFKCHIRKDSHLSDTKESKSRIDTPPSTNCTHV
Method: The binding properties of the pyrimidines of the present invention were evaluated at the cloned human galanin receptors, GAL1, GAL2, and GAL3, using protocols described herein. […]
(§1) LM(tk-) cells were stably transfected with the human GAL1 or GAL3 receptor. CHO cells were stably transfected with the human GAL2 receptor.
(§2) cDNAs for the human and rat GAL1, and human and rat GAL3 receptors were transfected with a G-418 resistant gene into the mouse fibroblast LM(tk-) cell line by a calcium phosphate transfection method (Cullen, 1987). Stably transfected cells were selected with G-418. Human and rat GAL2 receptors were similarly transfected into CHO cells.
(§3) Membranes were harvested from stably transfected LM(tk-) cells. Adherent cells were washed twice in ice-cold phosphate buffered saline (138 mM NaCl, 8.1 mM Na2HPO4, 2.5 mM KCl, 1.2 mM KH2PO4, 0.9 mM CaCl2, 0.5 mM MgCl2, pH 7.4) and lysed by sonication in ice-cold sonication buffer (20 mM Tris-HCl, 5 mM EDTA, pH 7.7). Large particles and debris were cleared by low speed centrifugation (200 x g, 5 min, 4°C). Membranes were collected from the supernatant fraction by centrifugation (32,000 x g, 18 min, 4°C), washed with ice-cold hypotonic buffer, and collected again by centrifugation (32,000 x g, 18 min, 4°C). The final membrane pellet was resuspended by sonication into a small volume of ice-cold binding buffer (-1 ml for every 5 plates: 10 mM NaCl, 20 mM HEPES, 0.22 mM KH2PO4, 1.26 mM CaCl2, 0.81 mM MgSO4, pH 7.4). Protein concentration was measured by the Bradford method (Bradford, 1976) using Bio-Rad Reagent, with bovine serum albumin as a standard. Membranes were held on ice for up to one hour and used fresh, or flash frozen and stored in liquid nitrogen. Membranes were prepared similarly from CHO cells.
(§4) Galanin Recentors: Binding assays were performed according to the following published methods: human GAL3 (PCT International Publication No. WO 98/15570), human GAL1 (PCT International Publication No. WO 95/2260), human GAL2 (PCT International Publication No. WO 97/26853).
(§5) Binding data were analyzed using nonlinear regression and statistical techniques available in the GraphPAD Prism package (San Diego, CA). Enzymatic assay data were derived from a standard curve of reference compound data.

human GAL2 receptor = target: T2, human GAL2 receptor (Homo sapiens, UniProt O43603); experiment: Radioligand binding at cloned human GAL2 receptor
T2 construct: expressed in transfected cells
T2 sequence (O43603 1-387): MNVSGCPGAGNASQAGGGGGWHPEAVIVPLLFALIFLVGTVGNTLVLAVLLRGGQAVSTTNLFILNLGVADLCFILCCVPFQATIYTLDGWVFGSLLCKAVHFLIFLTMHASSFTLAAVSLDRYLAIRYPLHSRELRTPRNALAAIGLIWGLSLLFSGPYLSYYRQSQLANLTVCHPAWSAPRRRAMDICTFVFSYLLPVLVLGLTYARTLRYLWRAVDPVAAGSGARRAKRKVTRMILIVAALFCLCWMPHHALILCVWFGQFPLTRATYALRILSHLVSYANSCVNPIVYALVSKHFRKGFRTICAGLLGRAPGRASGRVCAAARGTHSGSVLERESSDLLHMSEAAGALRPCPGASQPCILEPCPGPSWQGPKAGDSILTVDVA
Method: The binding properties of the pyrimidines of the present invention were evaluated at the cloned human galanin receptors, GAL1, GAL2, and GAL3, using protocols described herein.
The binding properties of the indolones of the present invention were evaluated at the cloned human galanin receptors, GAL1, GAL2, and GAL3, using protocols described herein.
as §1, §2, §3, §4, §5

human GAL3 receptor = target: T3, human GAL3 receptor (Homo sapiens, UniProt O60755); experiment: Radioligand binding at cloned human GAL3 receptor
T3 construct: expressed in transfected cells
T3 sequence (O60755 1-368): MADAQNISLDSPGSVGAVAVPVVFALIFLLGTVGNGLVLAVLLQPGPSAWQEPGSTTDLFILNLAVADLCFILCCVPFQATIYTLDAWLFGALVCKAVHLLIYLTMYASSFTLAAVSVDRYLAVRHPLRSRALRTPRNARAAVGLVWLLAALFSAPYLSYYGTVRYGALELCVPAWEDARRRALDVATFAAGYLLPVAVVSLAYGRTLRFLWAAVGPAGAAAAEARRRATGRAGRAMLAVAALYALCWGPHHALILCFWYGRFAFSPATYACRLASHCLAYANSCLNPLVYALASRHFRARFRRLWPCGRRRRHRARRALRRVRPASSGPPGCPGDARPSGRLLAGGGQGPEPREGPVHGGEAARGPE
In short: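 Membranes from LM(tk-) cells stably expressing human GAL3, prepared in binding buffer (HEPES-based, pH 7.4), used for radioligand binding. Solvent at final assay concentration: 3% DMSO for indolones, 1% ethanol/0.09% pluronic F-127 for pyrimidines. Binding data analysed by nonlinear regression.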

[1] = pyrimidines, read-out: Ki GalR1
[2] = pyrimidines, read-out: Ki GalR2
[3] = pyrimidines, cloned human receptor; read-out: Ki GalR3
[4] = indolones, cloned human receptor; read-out: Ki GalR3

Compound	Ki (human GAL1 receptor; [1]) [nM]	Ki (human GAL2 receptor; [2]) [nM]	Ki (human GAL3 receptor; [3]) [nM]	other results
COCCN(c1nc(Nc2ccc(C)cc2)cc(N(C)C)n1)C1CCCCC1 [Example 74]	2290	468	47	–
Cc1ccc(Nc2cc(N3CCCCC3)nc(Nc3ccc(Cl)cc3)n2)cc1 [Example 5]	> 5000	> 5000	345	–
COc1ccccc1N=C1C(=O)N(c2ccccc2)c2ccccc21 [Example 91, 3-[(2-METHOXYPHENYL)IMINO]-1-PHENYL-1,3-DIHYDRO-2H-INDOL-2-ONE]	–	–	–	Ki (human GAL1 receptor; indolones, read-out: Ki GalR1): > 10000 nM; Ki (human GAL2 receptor; indolones, read-out: Ki GalR2): > 10000 nM; Ki (human GAL3 receptor; [4]): 527 nM
Cc1ccc(Nc2cc(N3CCN(c4ncccc4C(F)(F)F)CC3)nc(N3CCCCC3)n2)cc1 [Example 89]	1120	1270	105	–
Cc1cc(Nc2cc(N(C)C)nc(Nc3ccccc3)n2)ccc1Cl [Example 61]	> 5000	> 5000	753	–
CN(CCc1c[nH]c2ccccc12)c1nc(Nc2ccc3ccccc3c2)cc(N2CCCCC2)n1 [Example 13]	2070	1410	81	–
CN(C)c1cc(NC2CC3CCC2C3)nc(Nc2ccccc2)n1 (centres unmarked) [Example 69]	> 5000	> 5000	417	–
C=CCN1C(=O)C(=Nc2cc(Cl)cc(Cl)c2)c2ccccc21 [Example 106, 1-ALLYL-3-[(3,5-DICHLOROPHENYL)IMINO]-1,3-DIHYDRO-2H-INDOL-2-ONE]	–	–	–	Ki (human GAL1 receptor; indolones, read-out: Ki GalR1): > 10000 nM; Ki (human GAL2 receptor; indolones, read-out: Ki GalR2): > 10000 nM; Ki (human GAL3 receptor; [4]): 62 nM
COCC1CCCCN1c1cc(Nc2ccc(C)cc2)nc(N2CCN(c3ncccc3C(F)(F)F)CC2)n1 (centres unmarked) [Example 90]	> 5000	2460	105	–
COc1ccc(N2CCN(c3nc(Nc4ccc(C)cc4)cc(N4CCCCC4)n3)CC2)c(OC)c1 [Example 28]	–	–	–	Ki (human GAL1 receptor; read-out: Ki GalR1, pyrimidines): > 5000 nM; Ki (human GAL2 receptor; read-out: Ki GalR2, pyrimidines): > 5000 nM; Ki (human GAL3 receptor; read-out: Ki GalR3; pyrimidines, cloned human receptor): 270 nM
Cc1ccc(Nc2cc(N3CCCCC3)nc(N3CCN(c4ccccc4)CC3)n2)cc1 [Example 25]	> 5000	1500	548	–
Cc1cccc(N=C2C(=O)N(c3ccccc3)c3ccccc32)c1 [Example 93]	–	–	–	Ki (human GAL1 receptor; indolones, read-out: Ki GalR1): > 10000 nM; Ki (human GAL2 receptor; indolones, read-out: Ki GalR2): > 10000 nM; Ki (human GAL3 receptor; [4]): 171 nM
Cc1ccc(Nc2cc(N3CCCCC3)nc(N(C)C3CCCCC3)n2)cc1 [Example 1]	668	188	35	–
Cc1ccc(Nc2cc(N3CCCCC3)nc(N3CCc4ccccc4C3)n2)cc1 [Example 41]	2130	840	151	–
Cc1ccc(Nc2cc(N(C)C)nc(N3CCOCC3c3ccccc3)n2)cc1 (centres unmarked) [Example 82]	> 5000	> 5000	232	–
O=C1C(=Nc2ccc(Oc3ccccc3)cc2)c2ccccc2N1c1ccccc1 [Example 100, 3-[(4-PHENOXYPHENYL)IMINO]-1-PHENYL-1,3-DIHYDRO-2H-INDOL-2-ONE]	–	–	–	Ki (human GAL1 receptor; indolones, read-out: Ki GalR1): > 10000 nM; Ki (human GAL2 receptor; indolones, read-out: Ki GalR2): > 10000 nM; Ki (human GAL3 receptor; [4]): 90 nM
Cc1ccc(Nc2cc(N(C)C)nc(N3CCc4ccccc43)n2)cc1 [Example 75]	1460	2460	144	–
C=CCN1C(=O)C(=Nc2ccc(Cl)c(Cl)c2)c2ccccc21 [Example 105, 1-ALLYL-3-[(3,4-DICHLOROPHENYL)IMINO]-1,3-DIHYDRO-2H-INDOL-2-ONE]	–	–	–	Ki (human GAL1 receptor; indolones, read-out: Ki GalR1): > 10000 nM; Ki (human GAL2 receptor; indolones, read-out: Ki GalR2): > 10000 nM; Ki (human GAL3 receptor; [4]): 97 nM

Compound	Ki (human GAL1 receptor; [1]) [nM]	Ki (human GAL2 receptor; [2]) [nM]	Ki (human GAL3 receptor; [3]) [nM]	other results
Cc1cc(C)cc(N=C2C(=O)N(c3ccccc3)c3ccccc32)c1 [Example 104]	–	–	–	Ki (human GAL1 receptor; indolones, read-out: Ki GalR1): > 10000 nM; Ki (human GAL2 receptor; indolones, read-out: Ki GalR2): > 10000 nM; Ki (human GAL3 receptor; [4]): 143 nM
Cc1ccc(Nc2cc(N(C)C)nc(NCCc3c[nH]c4ccccc34)n2)cc1 [Example 76]	3800	1660	392	–
Cc1ccc(Nc2cc(N3CCCCC3)nc(N(C)C(C)Cc3c[nH]c4ccccc34)n2)cc1 (centres unmarked) [Example 21]	4790	1100	49	–
CCN(CCc1c[nH]c2ccccc12)c1nc(Nc2ccc(C)cc2)cc(N2CCCCC2)n1 [Example 18]	3590	543	40	–
Cc1ccc(Nc2cc(N3CCCCC3)nc(N3CCOCC3c3ccccc3)n2)cc1 (centres unmarked) [Example 46]	> 5000	> 5000	577	–
Cc1ccc(Nc2cc(N3CCCCC3)nc(N3CCN(c4cccc(C(F)(F)F)c4)CC3)n2)cc1 [Example 29]	716	359	46	–
CN(C)c1cc(Nc2ccc(Cl)c(Cl)c2)nc(N(C)CCc2c[nH]c3ccccc23)n1 [Example 78]	4940	1860	41	–
Cc1ccc(Nc2cc(N3CCCCC3)nc(N3CCO[C@@H](c4ccccc4)[C@H]3C)n2)cc1 [Example 48]	> 5000	4230	120	–
CN(C)c1cc(Nc2ccc(Cl)cc2)nc(Nc2ccccc2)n1 [Example 58]	> 5000	> 5000	783	–
COCCN(c1nc(Nc2ccc(C)cc2)cc(N2CCCCC2)n1)C1CCCCC1 [Example 2]	2820	562	26	–
Cc1ccc(Nc2cc(N3CCCCC3)nc(N3CCOC(c4ccccc4)C3)n2)cc1 (centres unmarked) [Example 47]	> 5000	3010	115	–
CCc1ccccc1N1CCN(c2nc(Nc3ccc(C)cc3)cc(N3CCCCC3)n2)CC1 [Example 26]	–	4050	85	–
Cc1ccc(Nc2cc(N(C)C)nc(N(C)C3CCCCC3)n2)cc1 [Example 73]	–	1550	124	–
CN(CCc1c[nH]c2ccccc12)c1nc(Nc2cccc(F)c2)cc(N2CCCCC2)n1 [Example 14]	–	1340	54	–
Cc1ccc(Nc2cc(N(C)C)nc(N3CCC(O)(c4ccccc4)CC3)n2)cc1 [Example 80]	–	2480	615	–
Cc1ccc(Nc2cc(N3CCCCC3)nc(N3CCN(c4ncccn4)CC3)n2)cc1 [Example 37]	–	903	343	–
Cc1ccc(Nc2cc(N(C)C)nc(N(C)c3ccc(C)cc3)n2)cc1 [Example 72]	–	2080	132	–
COc1cc2c(cc1OC)CN(c1nc(Nc3ccc(C)cc3)cc(N3CCCCC3)n1)CC2 [Example 42]	–	1140	275	–
